Source: patent publication US20240131173A1, “PROTACS WITH TRANSCRIPTION FACTOR TARGETING MOIETIES” (Beth Israel Deaconess Medical Center, Inc., priority 2021, published 2024)
Entries after “also recorded” stand apart in the source; their conditions may differ.

Tests used:
p65 [1] = target: T1, p65 (Homo sapiens, UniProt Q04206); assay: In vivo ubiquitination assay of p65 (Ni-NTA pulldown); assay type: cell-based; details: HEK293T cells, Flag-p65 24 hours, then dNF-κB 12 hours
Experimental: Denatured in vivo ubiquitination assays were performed as previously described 41. Briefly, HEK293T cells were firstly transfected with Flag-p65 or HA-E2F1 for 24 hours, followed by additional transfection of individual TF-PROTAC for another 12 hours. Before been harvested, HEK293T cells were treated with 30 μM of MG132 for 4 hours. After having been harvested in denatured buffer A (6 M guanidine-HCI, pH 8.0, 0.1 M Na2HPO4/NaH2PO4, and 10 mM imidazole) and sonication for 10 seconds, cell lysis was incubation with Ni-nitrilotriacetic acid (NTA) matrices under rotation for 3 hours at room temperature. The pulldown products were washed sequentially twice in buffer A, twice in buffer A/TI mixture (buffer A, buffer TI=1:3, v/v), and once in buffer TI (25 mM tris-HCl, pH 6.8, and 20 mM imidazole). The ubiquitinated proteins were finally separated by 7% SDS-PAGE and blotted with individual antibody.
Target sequence in this assay (Q04206 whole entry): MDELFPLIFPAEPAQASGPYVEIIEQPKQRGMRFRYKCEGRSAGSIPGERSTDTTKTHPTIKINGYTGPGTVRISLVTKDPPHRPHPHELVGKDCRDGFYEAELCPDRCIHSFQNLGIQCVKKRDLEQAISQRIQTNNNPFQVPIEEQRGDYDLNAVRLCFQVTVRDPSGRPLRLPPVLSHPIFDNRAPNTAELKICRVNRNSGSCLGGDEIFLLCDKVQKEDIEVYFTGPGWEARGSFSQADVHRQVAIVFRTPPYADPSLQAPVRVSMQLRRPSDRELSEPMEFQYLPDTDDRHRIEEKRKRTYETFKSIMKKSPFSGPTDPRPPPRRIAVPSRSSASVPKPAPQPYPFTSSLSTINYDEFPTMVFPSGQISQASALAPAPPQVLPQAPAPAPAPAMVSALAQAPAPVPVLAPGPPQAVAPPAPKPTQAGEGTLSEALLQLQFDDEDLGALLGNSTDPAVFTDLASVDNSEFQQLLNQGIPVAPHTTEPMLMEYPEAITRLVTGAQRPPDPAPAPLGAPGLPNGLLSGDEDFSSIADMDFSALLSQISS

[2] = target: T2, VHL E3-PROTAC-p65 ternary complex (Homo sapiens, UniProt P40337+Q04206); assay: GST pulldown assay of VHL E3 ligase complex and p65 with TF-PROTAC; assay type: binding; details: GST-VHL complex from E. coli, HEK293T lysate with Flag-p65, in vitro
T2 construct: made in house; host or cells: E. coli BL21(DE3) for the GST-VHL/Elongin B/C complex; HEK293T lysate for Flag-p65
Excerpt: Furthermore, dNF-κB is capable of recruiting VHL E3 ubiquitin ligase to POI, NF-κB. […] However, dNF-κB obtained in current stage could not efficiently promote the degradation of p65 in cells, which prompted further optimization of the length of linker between the VHL ligand and DNA oligomer moieties for achieving efficient destruction of NF-κB in cells.
(§1) pGEX-GST-VHL/ElonginB construct was kindly gift from Dr. William Kaelin, Jr. at Dana-Farber Cancer Institute, Harvard Medical School. pGEX-GST-Elongin C plasmid was generated by subcloning Elongin C CDS into the BamHI and Xhol sites of pGEX-4T1-GST vector. The GST-VHL/ElonginB/C complex was purified as described 43. Briefly, BL21(DE3) E. coli was cotransfected with pGEX-GST-VHL/ElonginB and pGEX-GSTElonginC plasmid. Protein expression was induced by 100 μM isopropyl beta-D-thiogalactopyranoside (IPTG, Fisher Scientific) at 18° C.overnight. Then, the bacterial culture was centrifuged and sonicated in PBS buffer with protease inhibitor cocktail. Protein lysates were further purified with glutathione-Sepharose beads (GE17-0756-05) and washed with PBS for 5 times.
(§2) Glutathione-Sepharose beads loaded with GST-VHL E3 ligase complex were incubated at 4° C. with cell lysate derived from HEK293T cells that ectopic transfected with individual transfection factor. After incubation for 3 hours, TF-PROTACs were added into the mixture for another 2 hours, followed by wash with NETN buffer for 3 times. The pulldown products were further separated by 10% SDS-PAGE and blotted for indicated proteins.

p65 [3] = target: T3, p65 (Homo sapiens, UniProt P19838+Q04206); assay: Western blot of p65 in HeLa cells transfected with TF-PROTAC; assay type: cell-based; details: 12 hours, dNF-κB #1-#18 compared
T3 construct: endogenous in cells; host or cells: HeLa
Experimental: (§3) Human embryonic kidney 293T (HEK293T) and HeLa cells were maintained in Dulbecco's Modified Eagle's Medium (DMEM) containing 10% fetal bovine serum (FBS), 100 Units/mL of penicillin and 100 μg/mL streptomycin. For ectopic expression of transcription factors, Flag-p65 and HA-E2F1 were transfected into HEK293T cells and harvested for lysis 48 hours after transfection. For TF-PROTACs treatment, HeLa cells in 12-well plate were transfected with individual TF-PROTAC for 12 hours, followed by harvest for western blot analysis. […] For depletion of endogenous VHL E3 ligase, two sgRNA for VHL E3 ligase were synthesized and inserted into lenti-CRISPR-V2 construct 40. The sgVHL lentivirus were generated in HEK293T cells as previously described 41-42 for infection of HeLa cells overnight, followed by selection with puromycin for 72 h.
Cells were lysed in EBC buffer supplemented with protease inhibitors cocktail and phosphatase inhibitors, and the protein concentrations were measured as described above. The lysates (40 ug protein) were then resolved by 10% SDS-PAGE at 130 V for 80 min and immunoblotted with indicated antibodies at 4° C. overnight, washed 4 times with Tris-buffered saline with 0.1% Tween-20 (TBST), incubated with secondary antibody for 1 hour at room temperature, and then washed 4 times with TBST buffer. Anti-p65 (#8742, 1:1,000) and E2F1 (#3742, 1:500) antibodies were purchased from Cell Signaling Technologies. Anti-HA antibody (#901513, 1:1,000) was purchased from Biolegend. Anti-Flag (F3165, 1:5,000), anti-vinculin antibody (V-4505, 1:50,000), peroxidase-conjugated anti-mouse secondary antibody (A-4416, 1:3,000) and peroxidase-conjugated anti-rabbit secondary antibody (A-4914, 1:3,000) were purchased from Sigma. All primary antibodies were diluted in 5% bovine serum albumin (BSA) in TBST buffer, and secondary antibodies were diluted in 5% non-fat milk in TBST buffer.

p65 [4] = target: T1, p65; assay: Streptavidin-biotin pulldown / competition assay of NF-κB-ODN with Flag-p65; assay type: binding; details: excess competitor
Experimental: To determine whether NF-κB-ODN binds with NF-κB properly, we also synthesized a biotin-modified version of NF-κB-ODN (hereafter termed as Biotin-NF-κB-ODN, FIGS. 3A-3C).
HEK293T cells that ectopically expressed either Flag-p65 or HAE2F1 were lysed by EBC buffer (50 mM Tris pH 7.5, 120 mM NaCl, 0.5% NP-40) supplemented with protease inhibitors (Pierce) and phosphatase inhibitors (phosphatase inhibitor cocktail set I and II, Calbiochem). The protein concentrations of the lysates were measured using the Bio-Rad protein assay reagent on a Beckman Coulter DU-800 spectrophotometer. The cell lysates (1 mg) were further incubated with biotin-ODN at 4 °C for 3 hours, followed by adding 10 μL of Streptavidin agarose beads (Thermo Fisher) for another 1 hour. The beads were washed 4 times with NETN buffer (100 mM NaCl, 20 mM Tris-Cl, pH 8.0, 0.5 mM EDTA, 0.5% NP-40), boiled in SDS loading buffer and further separated by 10% SDS-PAGE and blotted with individual antibody.
Target sequence in this assay (Q04206 whole entry): as above

HeLa cells [5] = assay: Clonal (colony) formation assay; assay type: cell-based, human; details: HeLa cells
Experimental: (§4) For cell growth curve assay, HeLa cells (10, 000/well) in 12-well plate were transfected with individual TF-PROTAC, then the cells were trypsined and the cell number were counted at indicated time. For the clonal formation assay, HeLa cells were transfected with individual TF-PROTAC for 12 hours, followed by further plated into 6-well plate (1,000/well). Three weeks later, the cells were fixed in fixation buffer (acetic acid: methanol=1:7) and stained with 0.4% crystal violet in 20% ethanol. Then clonal number were quantified by Image J software. As various changes can be made in the above-described subject matter without departing from the scope and spirit of the present disclsoure, it is intended that all subject matter contained in the above description, or defined in the appended claims, be interpreted as descriptive and illustrative. Many modifications and variations of the present disclosure are possible in light of the above teachings. Accordingly, the present description is intended to embrace all such alternatives, modifications and variances which fall within the scope of the appended claims.

p65 [6] = target: T1, p65; assay: Western blot of p65 in HeLa cells transfected with TF-PROTAC; assay type: cell-based; set-up: endogenous in cells; host or cells: HeLa; details: 10 uM MG132
Experimental: as §3
Target sequence in this assay (Q04206 whole entry): as above
Target sequence in this assay (P19838 1-433 limits assumed, further chain): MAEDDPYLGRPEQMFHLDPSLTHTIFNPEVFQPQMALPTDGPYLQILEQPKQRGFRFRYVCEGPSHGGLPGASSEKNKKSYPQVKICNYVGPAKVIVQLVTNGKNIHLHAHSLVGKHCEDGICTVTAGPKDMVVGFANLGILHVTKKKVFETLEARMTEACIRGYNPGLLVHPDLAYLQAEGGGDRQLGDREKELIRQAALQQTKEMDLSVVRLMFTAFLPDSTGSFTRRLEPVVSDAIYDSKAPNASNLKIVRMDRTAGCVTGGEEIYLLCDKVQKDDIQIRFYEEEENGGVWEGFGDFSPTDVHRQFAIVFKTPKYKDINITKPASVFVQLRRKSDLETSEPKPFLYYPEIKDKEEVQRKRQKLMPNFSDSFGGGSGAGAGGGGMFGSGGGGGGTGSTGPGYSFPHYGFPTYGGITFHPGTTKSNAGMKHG
Cells were lysed in EBC buffer supplemented with protease inhibitors cocktail and phosphatase inhibitors, and the protein concentrations were measured as described above. The lysates (40 ug protein) were then resolved by 10% SDS-PAGE at 130 V for 80 min and immunoblotted with indicated antibodies at 4° C. overnight, washed 4 times with Tris-buffered saline with 0.1% Tween-20 (TBST), incubated with secondary antibody for 1 hour at room temperature, and then washed 4 times with TBST buffer. […]

HeLa cells [7] = assay: Cell growth curve assay (cell number); assay type: cell-based, human; details: 10 ug/mL
Experimental: as §4

[8] = target: T4, VHL E3 ubiquitin ligase and E2F1 transcription factor (Homo sapiens, UniProt P40337+Q01094+Q14186); assay: GST pulldown assay of VHL E3 ligase complex and E2F1 with TF-PROTAC; assay type: binding; details: in vitro pulldown
T4 construct: made in house; host or cells: E. coli BL21(DE3) for the GST-VHL/Elongin B/C complex; HEK293T lysate for the transfected transcription factor
Experimental: as §1, §2

T3 sequence (Q04206 whole entry): as the sequence (Q04206 whole entry) above
T3 sequence (P19838 1-433 limits assumed): as the sequence (P19838 1-433 limits assumed, further chain) above
T2 sequence (P40337 whole entry): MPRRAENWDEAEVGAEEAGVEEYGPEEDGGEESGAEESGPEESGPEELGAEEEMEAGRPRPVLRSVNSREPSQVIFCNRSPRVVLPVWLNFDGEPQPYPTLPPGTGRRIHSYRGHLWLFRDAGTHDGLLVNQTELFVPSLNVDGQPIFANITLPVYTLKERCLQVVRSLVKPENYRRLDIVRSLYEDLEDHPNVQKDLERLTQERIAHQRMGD
T2 sequence (Q15370 whole entry partner): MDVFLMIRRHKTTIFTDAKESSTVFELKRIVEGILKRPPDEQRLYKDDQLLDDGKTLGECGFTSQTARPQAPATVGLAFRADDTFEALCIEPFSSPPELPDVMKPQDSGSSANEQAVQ
T2 sequence (Q15369 whole entry partner): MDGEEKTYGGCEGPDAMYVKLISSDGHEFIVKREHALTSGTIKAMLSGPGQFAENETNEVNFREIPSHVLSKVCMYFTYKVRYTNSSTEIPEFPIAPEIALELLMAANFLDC
T2 sequence (Q04206 whole entry): as the sequence (Q04206 whole entry) above
T4 sequence (P40337 whole entry): as the sequence (P40337 whole entry) above
T4 sequence (Q15370 whole entry partner): as the sequence (Q15370 whole entry partner) above
T4 sequence (Q15369 whole entry partner): as the sequence (Q15369 whole entry partner) above
T4 sequence (Q01094 whole entry): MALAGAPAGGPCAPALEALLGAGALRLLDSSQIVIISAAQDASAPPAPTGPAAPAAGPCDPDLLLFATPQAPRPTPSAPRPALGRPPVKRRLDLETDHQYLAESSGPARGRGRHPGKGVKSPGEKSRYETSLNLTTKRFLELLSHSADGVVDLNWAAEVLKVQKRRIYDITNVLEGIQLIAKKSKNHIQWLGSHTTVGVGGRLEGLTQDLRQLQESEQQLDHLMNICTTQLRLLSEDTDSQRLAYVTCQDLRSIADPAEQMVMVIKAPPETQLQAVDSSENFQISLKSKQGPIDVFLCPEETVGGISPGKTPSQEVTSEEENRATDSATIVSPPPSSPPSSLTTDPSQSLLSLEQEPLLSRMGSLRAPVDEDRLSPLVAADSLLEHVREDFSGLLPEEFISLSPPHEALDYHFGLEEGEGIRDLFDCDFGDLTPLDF
T4 sequence (Q14186 whole entry): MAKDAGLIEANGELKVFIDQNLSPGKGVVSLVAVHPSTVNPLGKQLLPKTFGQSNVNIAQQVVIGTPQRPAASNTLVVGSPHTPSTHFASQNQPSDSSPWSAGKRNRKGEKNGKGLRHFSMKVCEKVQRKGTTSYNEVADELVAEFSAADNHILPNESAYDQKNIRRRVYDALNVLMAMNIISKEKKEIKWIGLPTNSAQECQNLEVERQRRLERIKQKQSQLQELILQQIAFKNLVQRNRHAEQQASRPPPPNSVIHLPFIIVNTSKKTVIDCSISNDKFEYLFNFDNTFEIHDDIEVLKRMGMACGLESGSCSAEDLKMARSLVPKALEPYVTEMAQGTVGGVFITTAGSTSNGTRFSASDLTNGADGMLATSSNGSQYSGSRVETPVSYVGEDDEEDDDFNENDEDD

| Substance | ubiquitination of p65 in cells (p65 [1]) | VHL E3 ligase-p65 binding (ternary complex) induced by PROTAC [2] | p65 signal / degradation efficiency in western blot (p65 [3]) | competition with Biotin-NF-κB-ODN for binding to p65 (p65 [4]) | other results |
| --- | --- | --- | --- | --- | --- |
| dNF-κB #4 (TGGGGACTTTCCAGTTTCTGGAAAGTCCCCA; VHL ligand conjugate via C4 linker, further chemistry not given here) | lead to the ubiquitination of p65 in cells | recruited the binding between the VHL E3 ubiquitin ligase and p65 in vitro | lowest p65 signal |  |  |
| N3-NF-κB-ODN: azide modification version of NF-κB-ODN, azide group on the 5′ end through the 5′ amino modifier C6 (TGGGGACTTTCCAGTTTCTGGAAAGTCCCCA; chemistry not fully specified) [Compound N3-NF-κB-ODN] |  |  |  | competed with Biotin-NF-κB-ODN for the binding with p65 |  |
| dNF-κB #18 (TGGGGACTTTCCAGTTTCTGGAAAGTCCCCA; decoy; VHL ligand conjugate via PEG5 linker, further chemistry not given here) | lead to the ubiquitination of p65 in cells | recruited the binding between the VHL E3 ubiquitin ligase and p65 in vitro | lowest p65 signal |  |  |
| dNF-κB #7 (TGGGGACTTTCCAGTTTCTGGAAAGTCCCCA; VHL ligand conjugate via C7 linker, further chemistry not given here) | lead to the ubiquitination of p65 in cells | recruited the binding between the VHL E3 ubiquitin ligase and p65 in vitro | lowest p65 signal |  |  |
| dNF-κB #15 (TGGGGACTTTCCAGTTTCTGGAAAGTCCCCA; decoy; VHL ligand conjugate via PEG2 linker, further chemistry not given here) | lead to the ubiquitination of p65 in cells | recruited the binding between the VHL E3 ubiquitin ligase and p65 in vitro | lowest p65 signal; also recorded: best degradation efficiency |  | tumorigenesis ability (colony formation) (HeLa cells [5]): inhibited; degradation of endogenous p65 under proteasome inhibitor MG132 (p65 [6]): blocked the degradation of endogenous p65; proliferation of HeLa cells (cell number) (HeLa cells [7]): repressed the proliferation of HeLa cells |
| dNF-κB #1 (TGGGGACTTTCCAGTTTCTGGAAAGTCCCCA; DNA, backbone and methylation of C not given here; further chemistry not fully specified) |  | induced the VHL E3-PROTAC-p65 ternary complex formation |  | competed with Biotin NF-κB for binding to RelA/p65 |  |
| dE2F #15 (chain 1 CTAGATTTCCCGCG; chain 2 CTAGCGCGGGAAAT; DNA, backbone and methylation of C not given here; further chemistry not fully specified) |  |  |  |  | binding between VHL E3 ubiquitin ligase and E2F1 recruited by PROTAC [8]: recruited the binding between the VHL E3 ubiquitin ligase and E2F1 transcription factor in vitro |
| 5′-TGGGGACTTTCCAGTTTCTGGAAAGTCCCCA-3′ (chemistry not given here) [NF-κB-ODN, reference compound] |  |  |  | competed with Biotin-NF-κB-ODN for the binding with p65 | tumorigenesis ability (colony formation) (HeLa cells [5]): not |
